Experimental data as given in ChEMBL document CHEMBL1201862, “PubChem BioAssay data set” (2004).
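These data come from cells grown in 96-well plates and exposed to compound for 48 hours at five concentrations. GI50 is the concentration that inhibits growth by half.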 Activity calls are given as the source filed them. Rule as the data show it: active = GI50 up to about 1.1 µM and inactive = higher.

Tests used:
Assay in all cases: NCI tumour cell line growth inhibition, 48 h
A549 = test system: A549
M14 = test system: M14
SK-MEL-2 = test system: SK-MEL-2
KM12 = test system: KM12
HT-29 = test system: HT-29
HCT-116 = test system: HCT-116
SF-539 = test system: SF-539
CAKI-1 = test system: CAKI-1
MDA-N = test system: MDA-N
OVCAR-4 = test system: OVCAR-4
SN12C = test system: SN12C
SK-MEL-28 = test system: SK-MEL-28
MDA-MB-231 = test system: MDA-MB-231
MOLT-4 = test system: MOLT-4
SK-MEL-5 = test system: SK-MEL-5
MCF7 = test system: MCF7
MDA-MB-435 = test system: MDA-MB-435
UO-31 = test system: UO-31
HOP-92 = test system: HOP-92
NCI/ADR-RES = test system: NCI/ADR-RES

Measured: GI50

COC(=O)C1=C(C(=O)NNc2ccccc2)N(c2cccnc2Cl)C(c2ccccc2)=CC1c1ccccc1 (stereo not drawn)
inactive: A549 40.9 µM | M14 33.3 µM | SK-MEL-2 22.4 µM | KM12 29.6 µM | HT-29 58.6 µM | HCT-116 23.7 µM | SF-539 72.4 µM | CAKI-1 56.5 µM | MDA-N 20.5 µM | OVCAR-4 > 100 µM | SN12C > 100 µM | SK-MEL-28 48.2 µM | MDA-MB-231 56.1 µM | MOLT-4 15.2 µM | SK-MEL-5 34 µM | MCF7 34.9 µM | MDA-MB-435 29.5 µM

C=CCc1ccccc1CC1(OCC)OC(=O)c2ccccc21 (stereo not drawn)
inactive: A549 > 100 µM | M14 66.1 µM | SK-MEL-2 89.3 µM | HT-29 45.2 µM | HCT-116 41.2 µM | SF-539 > 100 µM | CAKI-1 > 100 µM | MDA-N 31.3 µM | UO-31 > 100 µM | OVCAR-4 > 100 µM | SN12C 87.7 µM | SK-MEL-28 > 100 µM | MDA-MB-231 72.8 µM | HOP-92 33.8 µM | MOLT-4 48.8 µM | SK-MEL-5 39.9 µM | MCF7 > 100 µM | MDA-MB-435 28.8 µM

N#CC(C#N)=Cc1ccc2c(c1)OC(Cl)O2 (stereo not drawn)
inactive: A549 38.8 µM | M14 21.4 µM | SK-MEL-2 21.9 µM | KM12 20.4 µM | HT-29 23.8 µM | HCT-116 18.9 µM | SF-539 20.4 µM | CAKI-1 > 100 µM | MDA-N 16 µM | UO-31 16.9 µM | OVCAR-4 42.2 µM | SN12C 24.9 µM | SK-MEL-28 19.9 µM | NCI/ADR-RES 42.1 µM | MOLT-4 29.8 µM | SK-MEL-5 19.1 µM | MCF7 24.4 µM | MDA-MB-435 14.3 µM

Cn1c(=O)c2nc(Nc3ccccc3)[nH]c2n(C)c1=O
inactive: A549 > 10 µM | M14 > 10 µM | KM12 > 10 µM | HT-29 > 10 µM | CAKI-1 > 10 µM | MDA-N > 10 µM | OVCAR-4 > 10 µM | SN12C > 10 µM | SK-MEL-28 > 10 µM | MDA-MB-231 > 10 µM | HOP-92 > 10 µM | MOLT-4 > 10 µM | SK-MEL-5 > 10 µM | MCF7 > 10 µM | MDA-MB-435 > 10 µM
